One block for each molecule: values may come before it.
Tests used:
Integrin alpha-4/beta-7 [1] = target: T1, Integrin alpha-4/beta-7 (Homo sapiens, UniProt P13612+P26010); assay: Inhibition of alpha-4 beta7/MAdCAM mediated cell adhesion was evaluated using B-cell lymphoma RPMI 8866 cells; type: functional, cell-based
T1 sequence (P13612 whole entry): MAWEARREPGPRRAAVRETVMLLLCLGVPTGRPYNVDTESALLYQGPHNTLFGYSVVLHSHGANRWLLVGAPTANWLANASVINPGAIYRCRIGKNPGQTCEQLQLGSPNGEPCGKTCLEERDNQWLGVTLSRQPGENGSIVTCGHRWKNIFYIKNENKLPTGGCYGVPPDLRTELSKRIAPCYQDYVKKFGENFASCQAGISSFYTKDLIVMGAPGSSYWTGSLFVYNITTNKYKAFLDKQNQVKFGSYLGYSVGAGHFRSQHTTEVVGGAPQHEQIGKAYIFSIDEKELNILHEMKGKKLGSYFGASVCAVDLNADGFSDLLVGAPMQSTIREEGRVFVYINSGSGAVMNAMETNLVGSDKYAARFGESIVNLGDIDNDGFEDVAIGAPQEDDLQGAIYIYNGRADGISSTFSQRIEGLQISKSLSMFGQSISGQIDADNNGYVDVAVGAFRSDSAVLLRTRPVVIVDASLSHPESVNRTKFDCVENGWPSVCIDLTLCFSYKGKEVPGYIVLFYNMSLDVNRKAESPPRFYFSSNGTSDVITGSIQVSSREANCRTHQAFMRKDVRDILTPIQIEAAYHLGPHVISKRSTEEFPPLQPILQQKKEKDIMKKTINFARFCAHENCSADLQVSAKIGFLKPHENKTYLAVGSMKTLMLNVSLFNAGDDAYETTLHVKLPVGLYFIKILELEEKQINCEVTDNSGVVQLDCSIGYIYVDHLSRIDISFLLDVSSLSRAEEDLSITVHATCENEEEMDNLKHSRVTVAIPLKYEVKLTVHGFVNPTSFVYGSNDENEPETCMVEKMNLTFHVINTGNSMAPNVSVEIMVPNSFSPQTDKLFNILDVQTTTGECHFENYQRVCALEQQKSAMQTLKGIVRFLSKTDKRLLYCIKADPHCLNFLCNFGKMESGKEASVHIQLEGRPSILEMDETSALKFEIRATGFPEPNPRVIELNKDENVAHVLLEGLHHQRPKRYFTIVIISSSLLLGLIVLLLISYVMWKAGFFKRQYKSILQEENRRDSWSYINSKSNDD
T1 sequence (P26010 whole entry): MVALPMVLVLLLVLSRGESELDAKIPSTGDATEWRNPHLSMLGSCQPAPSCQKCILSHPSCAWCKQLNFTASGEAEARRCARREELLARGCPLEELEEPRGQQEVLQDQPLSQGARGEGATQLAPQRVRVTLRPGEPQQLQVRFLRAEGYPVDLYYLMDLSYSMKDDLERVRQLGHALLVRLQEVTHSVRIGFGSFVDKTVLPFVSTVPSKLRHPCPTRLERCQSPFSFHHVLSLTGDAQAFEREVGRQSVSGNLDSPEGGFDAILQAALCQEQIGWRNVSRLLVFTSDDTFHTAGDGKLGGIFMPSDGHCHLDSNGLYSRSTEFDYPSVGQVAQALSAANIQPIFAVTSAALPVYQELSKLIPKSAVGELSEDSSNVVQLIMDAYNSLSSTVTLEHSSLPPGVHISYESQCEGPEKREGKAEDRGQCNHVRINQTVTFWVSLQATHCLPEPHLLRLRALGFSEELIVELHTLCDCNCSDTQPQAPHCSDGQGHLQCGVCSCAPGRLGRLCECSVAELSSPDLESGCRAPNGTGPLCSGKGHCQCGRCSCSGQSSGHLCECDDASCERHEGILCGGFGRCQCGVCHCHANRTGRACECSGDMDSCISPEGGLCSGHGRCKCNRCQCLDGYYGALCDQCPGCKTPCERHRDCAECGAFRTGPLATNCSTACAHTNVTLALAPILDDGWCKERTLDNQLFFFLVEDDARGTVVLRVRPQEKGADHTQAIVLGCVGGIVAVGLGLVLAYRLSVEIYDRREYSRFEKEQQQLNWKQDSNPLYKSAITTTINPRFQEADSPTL

Integrin alpha-4/beta-7 [2] = target: T1, Integrin alpha-4/beta-7; assay: Inhibition of alpha-4 beta7/MAdCAM mediated cell adhesion was evaluated using B-cell lymphoma RPMI 8866 cells; In active; type: functional, cell-based

IC50 (Integrin alpha-4/beta-7 [1]): 82 µM
SMILES: C=C(C)CCOC(=O)[C@H](Cc1ccccc1)NCc1cc([N+](=O)[O-])ccc1O

IC50 (Integrin alpha-4/beta-7 [1]): 9 µM
SMILES: CC(C)(C)COC(=O)[C@H](Cc1ccccc1)NCc1cc([N+](=O)[O-])ccc1O

IC50 (Integrin alpha-4/beta-7 [1]): 6 µM
SMILES: CC(C)CCNC(=O)[C@H](Cc1ccccc1)NCc1cc([N+](=O)[O-])ccc1O

IC50 (Integrin alpha-4/beta-7 [1]): 117 µM
SMILES: CC(C)(C)OC(=O)[C@H](Cc1ccccc1)NCc1ccccc1F

IC50 (Integrin alpha-4/beta-7 [1]): 122 µM
SMILES: COc1ccc(CN[C@@H](Cc2ccccc2)C(=O)OC(C)(C)C)cc1

IC50 (Integrin alpha-4/beta-7 [2]): Not Active
SMILES: CC(C)(C)OC(=O)[C@H](Cc1ccccc1)NCc1ccc([N+](=O)[O-])c(O)c1

IC50 (Integrin alpha-4/beta-7 [1]): 7 µM
SMILES: CC(C)CCOC(=O)[C@H](Cc1ccccc1)NCc1cc([N+](=O)[O-])ccc1O

IC50 (Integrin alpha-4/beta-7 [1]): 122 µM
SMILES: COc1cccc(CN[C@@H](Cc2ccccc2)C(=O)OC(C)(C)C)c1

IC50 (Integrin alpha-4/beta-7 [1]): 54 µM
SMILES: CC(C)(C)OC(=O)[C@H](Cc1ccccc1)NCc1cccc(O)c1

More lines, now with the values behind:

SMILES: CC(C)(C)OC(=O)[C@H](Cc1ccccc1)NCc1ccc(O)cc1
IC50 (Integrin alpha-4/beta-7 [1]): 85 µM

SMILES: CC(C)(C)OC(=O)[C@H](Cc1ccccc1)NCc1ccccc1
IC50 (Integrin alpha-4/beta-7 [1]): 100 µM

SMILES: O=C(OCc1ccccc1)[C@H](Cc1ccccc1)NCc1cc([N+](=O)[O-])ccc1O
IC50 (Integrin alpha-4/beta-7 [1]): 7 µM

SMILES: COc1ccccc1CN[C@@H](Cc1ccccc1)C(=O)OC(C)(C)C
IC50 (Integrin alpha-4/beta-7 [1]): 50 µM

SMILES: CC(C)(C)OC(=O)[C@H](Cc1ccccc1)NCc1cc([N+](=O)[O-])ccc1O
IC50 (Integrin alpha-4/beta-7 [1]): 30 µM

SMILES: CC(C)CCNC(=O)[C@@H](Cc1ccccc1)NCc1cc([N+](=O)[O-])ccc1O
IC50 (Integrin alpha-4/beta-7 [2]): Not Active

SMILES: CC(C)(C)OC(=O)[C@H](Cc1ccccc1)NCc1ccc(F)cc1
IC50 (Integrin alpha-4/beta-7 [1]): 121 µM

SMILES: CC(C)(C)OC(=O)[C@H](Cc1ccccc1)NCc1ccccc1O
IC50 (Integrin alpha-4/beta-7 [1]): 60 µM

SMILES: CC(C)(C)OC(=O)[C@H](Cc1ccccc1)NCc1cccc(F)c1
IC50 (Integrin alpha-4/beta-7 [1]): 176 µM

From ChEMBL document CHEMBL1133132, “Cell adhesion antagonists: synthesis and evaluation of a novel series of phenylalanine based inhibitors” (Bioorg Med Chem Lett, 2000)
